{
  "source": "patent US5728724A",
  "about": "“Benzothiophene compounds” (Eli Lilly and Company, priority 1996, dated 1998)",
  "type_in_all_cases": "in vivo, Sprague Dawley rats",
  "key": {"Serum Cholesterol": {"system": "Serum Cholesterol", "assay": "Serum cholesterol analysis in ovariectomized rats", "conditions": "OVX rats", "experimental": "(§1) In the examples illustrating the methods, a post-menopausal model was used in which effects of different treatments upon circulating lipids were determined.\n(§2) Seventy-five day old female Sprague Dawley rats (weight range of 200 to 225g) were obtained from Charles River Laboratories (Portage, Mich.). The animals were either bilaterally ovariectomized (OVX) or exposed to a Sham surgical procedure at Charles River Laboratories, and then shipped after one week. Upon arrival, they were housed in metal hanging cages in groups of 3 or 4 per cage and had ad libitum access to food calcium content approximately 0.5%) and water for one week. Room temperature was maintained at 22.2°±1.7° C. with a minimum relative humidity of 40%. The photoperiod in the room was 12 hours light and 12 hours dark.\n(§3) Dosing Regimen Tissue Collection. After a one week acclimation period (therefore, two weeks post-OVX) daily dosing with test compound was initiated. […] Animals were dosed daily for 4 days. Following the dosing regimen, animals were weighed and anesthetized with a ketamine: Xylazine (2:1, V:V) mixture and a blood sample was collected by cardiac puncture. The animals were then sacrificed by asphyxiation with CO2, the uterus was removed through a midline incision, and a wet uterine weight was determined.\nCholesterol Analysis. Blood samples were allowed to clot at room temperature for 2 hours, and serum was obtained following centrifugation for 10 minutes at 3000 rpm. Serum cholesterol was determined using a Boehringer Mannheim Diagnostics high performance cholesterol assay. Briefly the cholesterol was oxidized to cholest-4-en-3-one and hydrogen peroxide. The hydrogen peroxide was then reacted with phenol and 4-aminophenazone in the presence of peroxidase to produce a p-quinone imine dye, which was read spectrophotemetrically at 500 nm. Cholesterol concentration was then calculated against a standard curve. The entire assay was automated using a Biomek Automated Workstation."}, "[1]": {"system": "Uterine Eosinophil Peroxidase (EPO)", "assay": "Uterine Eosinophil Peroxidase (EPO) Assay in ovariectomized rats", "set-up": "key: max velocity of A450 increase over a 15 s interval", "conditions": "0.1 mg/kg, oral, daily for 4 days, OVX rats", "experimental": "as §1, §2, §3\nUterine Eosinophil Peroxidase (EPO) Assay. Uteri were kept at 4° C. until time of enzymatic analysis. The uteri were then homogenized in 50 volumes of 50 mM Tris buffer (pH-8.0) containing 0.005% Triton X-100. Upon addition of 0.01% hydrogen peroxide and 10 mM O-phenylenediamine (final concentrations) in Tris buffer, increase in absorbance was monitored for one minute at 450 nm. The presence of eosonophils in the uterus is an indication of estrogenic activity of a compound. The maximal velocity of a 15 second interval was determined over the initial, linear portion of the reaction curve."}, "[2]": {"system": "uterus of ovariectomized (OVX) rats", "assay": "Uterine weight in ovariectomized rats (post-menopausal model, agonist activity)", "experimental": "as §1, §2, §3"}, "[3]": {"system": "femur density of ovariectomized rats", "assay": "Osteoporosis Test (bone density of ovariectomized rats)", "conditions": "OVX rats, daily for 35 days", "description": "Following the General Preparation Procedure, infra, the rats or treated daily for 35 days (6 rats per treatment group) and sacrificed by carbon dioxide asphyxiation on the 36th day. The 35 day time period is sufficient to allow maximal reduction in bone density, measured as described herein. At the time of sacrifice, the uteri are removed, dissected free of extraneous tissue, and the fluid contents are expelled before determination of wet weight in order to confirm estrogen deficiency associated with complete ovariectomy. […] The uteri are then placed in 10% neutral buffered formalin to allow for subsequent histological analysis. The right femurs are excised and digitilized x-rays generated and analyzed by an image analysis program (NIH image) at the distal metaphysis. The proximal aspect of the tibiae from these animals are also scanned by quantitative computed tomography. In general, ovariectomy of test animals will cause a significant reduction in femur density compared to intact, vehicle treated controls."}},
  "data": [
    {"compound": "C#C[C@]1(O)CC[C@H]2[C@@H]3CCc4cc(O)ccc4[C@H]3CC[C@@]21C", "note": "[EE2, 17α-ethynyl estradiol, reference compound]", "values": [
      {"measurement": "inhibition in vivo at 0.1 mg/kg", "setting": "Serum Cholesterol; Rattus norvegicus, po, 96 h, 0.1 mg/kg, daily for 4 days, read-out: Serum Cholesterol (% decrease vs. OVX)", "value": 81.4, "unit": "%"},
      {"measurement": "Serum cholesterol, result in words", "setting": "Serum Cholesterol; oral, EE2 at 0.1 mg/kg/day", "value": "caused a decrease in serum cholesterol"},
      {"measurement": "Uterine EPO (V. max)", "setting": "[1]", "value": 116.4},
      {"measurement": "change in vivo at 0.1 mg/kg", "setting": "[2]; Rattus norvegicus, po, 96 h, 0.1 mg/kg, daily for 4 days, read-out: Uterine Weight (% increase vs. OVX)", "value": 86.3, "unit": "%"},
      {"measurement": "Uterine weight / uterine stimulation, result in words", "setting": "[2]; oral, EE2 at 0.1 mg/kg/day", "value": "exerted a stimulatory action on the uterus so that EE2 uterine weight was substantially greater than the uterine weight of ovariectomized test animals"},
      {"measurement": "Prevention of bone loss after ovariectomy, result in words", "setting": "[3]", "value": "usually prevents this loss"}
    ]}
  ]
}
